This note sets out measurements from patent US6177449A, “Sulfonamide-substituted chromans, processes for their preparation, their use as a medicament or diagnostic, and pharmaceutical preparations comprising them” (Aventis Pharma Deutschland GmbH, priority 1997, dated 2001).

In general, IC50 refers to the midpoint of a concentration-inhibition curve. High values mean weaker potency, low ones greater potency.

The target of this experiment is T1, human IsK protein (Homo sapiens, UniProt P15382).
T1 construct: only IsK injected, pore from oocyte's endogenous KCNQ1; two-microelectrode voltage clamp
T1 sequence (P70057 whole entry partner): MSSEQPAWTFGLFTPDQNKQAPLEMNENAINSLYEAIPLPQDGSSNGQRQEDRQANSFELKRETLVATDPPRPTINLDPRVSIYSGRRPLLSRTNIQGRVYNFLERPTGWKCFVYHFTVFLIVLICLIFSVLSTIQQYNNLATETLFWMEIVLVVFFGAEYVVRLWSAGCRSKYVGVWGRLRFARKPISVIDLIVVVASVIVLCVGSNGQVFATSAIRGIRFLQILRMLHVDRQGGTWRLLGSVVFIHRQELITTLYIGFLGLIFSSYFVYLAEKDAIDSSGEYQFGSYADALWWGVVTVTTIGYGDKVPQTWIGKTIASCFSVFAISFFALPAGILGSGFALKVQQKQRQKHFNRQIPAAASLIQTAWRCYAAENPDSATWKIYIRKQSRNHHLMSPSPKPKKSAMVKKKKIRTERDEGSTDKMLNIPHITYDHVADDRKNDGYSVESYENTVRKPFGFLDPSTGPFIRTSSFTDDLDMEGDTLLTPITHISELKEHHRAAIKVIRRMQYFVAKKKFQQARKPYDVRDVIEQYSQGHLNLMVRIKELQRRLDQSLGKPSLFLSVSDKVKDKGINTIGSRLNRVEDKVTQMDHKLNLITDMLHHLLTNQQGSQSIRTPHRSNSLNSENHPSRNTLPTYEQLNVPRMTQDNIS
Kind of experiment: Inhibition of IsK current in Xenopus oocytes expressing human IsK protein (two-microelectrode voltage-clamp). The format is cell-based. Particulars: human IsK expressed in Xenopus oocytes; activated to -10 mV, 15 s voltage jumps, room temperature; Hill equation.
Take `CCOCCCOc1ccc2c(c1)C(N(CC)S(C)(=O)=O)CC(C)(C)O2` (stereo not drawn) [Example 1, N-[6-(3-Ethoxypropoxy)-2,2-dimethylchroman-4-yl]-N-ethyl-methanesulfonamide]: inhibition was half-maximal at 0.43 µM (IC50).
As for `CCN(C1CC(C)(C)Oc2ccc(OCCCCCO)cc21)S(C)(=O)=O` (stereo not drawn) [Example 2, N-Ethyl-N-[6-(5-hydroxypentyloxy)-2,2-dimethylchroman-4-yl]methanesulfonamide], it took 1.71 µM to reach half-maximal inhibition (IC50).
In the case of `CCN(C1CC(C)(C)Oc2ccc(OCCCCC(=O)NCCOC)cc21)S(C)(=O)=O` (stereo not drawn) [Example 3, 5-[4-(Ethylmethanesulfonylamino)-2,2-dimethylchroman-6-yloxy]pentanoic acid (2-methoxyethyl)amide] it was 6.36 µM; in that of `CCN(C1CC(C)(C)Oc2ccc(OCCO)cc21)S(C)(=O)=O` (stereo not drawn) [Example 8, N-Ethyl-N-[6-(2-hydroxyethoxy)-2,2-dimethylchroman-4-yi]-methanesulfonamide], 7.43 µM.
In turn, `CCOCCOc1ccc2c(c1)C(N(CC)S(C)(=O)=O)CC(C)(C)O2` (stereo not drawn) [Example 9, N-[6-(2-Ethoxyethoxy)-2,2-dimethylchroman-4-yl]-N-ethylmethanesulfonamide] had an IC50 of 0.69 µM.
In the case of `CCN(C1CC(C)(C)Oc2ccc(OCc3cc(OC)ccn3)cc21)S(C)(=O)=O` (stereo not drawn) [Example 10, N-Ethyl--N-[6-(((4-methoxypyridin-2-yl)methyl)oxy)-2,2-dimethylchroman-4-yl]methanesulfonamide] it was roughly 8 µM.
In the case of `CCOCCCOc1ccc2c(c1)C(N(C)S(C)(=O)=O)CC(C)(C)O2` (stereo not drawn) [Example 15, N-[6-(3-Ethoxypropoxy)-2,2-dimethylchroman-4-yl]-N-methylmethanesulfonamide] it was 0.32 µM; in that of `CCOCCOc1ccc2c(c1)C(N(CCOC)S(C)(=O)=O)CC(C)(C)O2` (stereo not drawn) [Example 17, N-[6-(2-Ethoxyethoxy)-2,2-dimethylchroman-4-yl]-N-(2-methoxyethyl)methanesulfonamide], roughly 1 µM; in that of `CCOCCCOc1ccc2c(c1)C(N(CCOC)S(C)(=O)=O)CC(C)(C)O2` (stereo not drawn) [Example 21, N-[6-(3-Ethoxypropoxy)-2,2-dimethylchroman-4-yl]-N-(2-methoxyethyl)methanesulfonamide], 1.74 µM.
In the case of `CCCN(C1CC(C)(C)Oc2ccc(OCC(=O)NCCOC)cc21)S(=O)(=O)CC` (stereo not drawn) [Example 22, 2-[4-(Ethanesulfonyl-(1-propyl)amino)-2,2-dimethylchroman-6-yloxy]-N-(2-methoxyethyl)acetamide] it was roughly 3 µM; in that of `CCCN(C1CC(C)(C)Oc2ccc(OCC(=O)NCCCOCC)cc21)S(=O)(=O)CC` (stereo not drawn) [Example 23, 2-[4-(Ethanesulfonyl-(1-propyl)amino)-2,2-dimethylchroman-6-yloxy]-N-(3-ethoxypropyl)acetamide], 2.49 µM.
For the compound `CCS(=O)(=O)N(C)C1CC(C)(C)Oc2ccc(-c3cccs3)cc21` (stereo not drawn) [Example 26, Ethanesulfonic acid (2,2-dimethyl-6-thiophen-2-yl-chroman-4-yl)methylamide], half-maximal inhibition (IC50) was put at 0.38 µM.
